Experimental data taken from patent US11629171B2, “Beta-hairpin peptidomimetics” (POLYPHOR AG, priority 2017, dated 2023).
≈ marks a conversion by molar mass, not a printed value. Where a SMILES comes first, the peptide text is derived from it. Bridges are numbered along the chain shown (N, C = ends). Roman numbers before positions name the chains, in order. [ ]: non-standard residue; d: D form. dDab = NCC[C@@H](N)C(=O)O; Dab = NCC[C@H](N)C(=O)O; Abu = CC[C@H](N)C(=O)O; Dap = NC[C@H](N)C(=O)O

Legend:
[1] = test system: Klebsiella pneumoniae SSI #3010; format: cell-based; details: SSI #3010
In short: (§1)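 MIC in μg/mL, read as no visible growth after 18-20 hours at 35° C. Peptides were serially diluted two-fold in MH-II broth plus P-80 (0.002% final, v/v) and inoculated at about 10^6 CFU/mL following the CLSI broth microdilution standard.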

[2] = test system: Acinetobacter baumannii 872842; format: cell-based; details: 872842
In short: as §1

Escherichia coli 926415 = format: cell-based; details: 926415
In short: as §1

[3] = test system: Pseudomonas aeruginosa ATCC 27853; format: cell-based; details: ATCC 27853
In short: as §1

[4] = test system: Acinetobacter baumannii DSM 30008; format: cell-based; details: DSM 30008
In short: as §1

[5] = test system: Escherichia coli ATCC 25922; format: cell-based; details: ATCC 25922
In short: as §1

[6] = test system: Klebsiella pneumoniae 968733; format: cell-based; details: 968733
In short: as §1

[7] = test system: Enterobacter cloacae 848840; format: cell-based; details: 848840
In short: as §1

male ICR mice = assay: Tolerability in a mouse model (Maximum Tolerated Dose assay); format: in vivo; details: 2 × 40 mg/kg s.c. at a 12-hr interval, groups of 3
In short: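 Groups of 3 male ICR mice weighing 23±3 g received two subcutaneous doses, 12 h apart, of 30 or 40 mg/kg in saline adjusted to pH 6.5-7.6. Observation for 30 min after each dose covered autonomic effects and acute toxicity, including death.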

[8] = test system: human red blood cells (hRBC); assay: Hemolysis; format: cell-based; details: red cells of human, 1 h, 200
In short: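 hRBC washed 4× in PBS; 200 μg/mL peptide + 20% (v/v) hRBC, 1 h, 37° C, 300 rpm. Spin, supernatant ~7.5-fold diluted, OD540 blank corrected. % hemolysis = OD540 peptide / OD540 Triton X-100 × 100.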

| Structure (SMILES) | Klebsiella pneumoniae SSI #3010 MIC [1] [µg/mL] | MIC [2] [µg/mL] | MIC (Escherichia coli 926415) [µg/mL] | Pseudomonas aeruginosa ATCC 27853 MIC [3] [µg/mL] | Acinetobacter baumannii DSM 30008 MIC [4] [µg/mL] | Escherichia coli ATCC 25922 MIC [5] [µg/mL] | MIC [6] [µg/mL] | MIC [7] [µg/mL] | Mortality and dose (male ICR mice) | Hemolysis at 200 μg/mL [8] [%] |
| --- | --- | --- | --- | --- | --- | --- | --- | --- | --- | --- |
| CC(=O)N[C@H](C(=O)N[C@H]1CSSC[C@@H](C(=O)N[C@@H](CO)C(N)=O)NC(=O)[C@H](C(C)C)NC(=O)[C@H](CO)NC(=O)[C@H](Cc2c[nH]c3ccccc23)NC(=O)[C@H](CCC(=O)N[C@@H](CCN)C(=O)N[C@H](C(=O)N[C@@H](CN)C(=O)N[C@H]2CCNC(=O)[C@H]([C@@H](C)O)NC(=O)[C@H](CCN)NC(=O)[C@H](CCN)NC(=O)[C@H](CC(C)C)NC(=O)[C@@H](CC(C)C)NC(=O)[C@H](CCN)NC2=O)[C@@H](C)O)NC(=O)[C@@H](CCN)NC(=O)[C@H](C)NC(=O)[C@H](CCN)NC(=O)[C@H](Cc2ccc(O)cc2)NC1=O)C(C)C [Ex. 361] (I: Ac-VCY[Dab]A[dDab]EWSVCS-NH2 / II: [Dab]T[Dap][Dab][Dab][dL]L[Dab][Dab]T; disulfide I:2-I:11; amide I:7-II:N; lactam II:4-II:C) | 0.0625 | 0.0625 (≈ 0.0262 µM) | 0.125 (≈ 0.0525 µM) | 0.125 | 0.0625 | 0.0625 | 0.125 (≈ 0.0525 µM) | 0.0625 (≈ 0.0262 µM) | 0/3 died at 2 × 40 mg/kg | <1 |
| CC[C@@H]1NC(=O)[C@H](CCN)NC(=O)[C@H](Cc2ccc(O)cc2)NC(=O)[C@@H](NC(=O)[C@@H](NC(C)=O)C(C)C)CSSC[C@@H](C(=O)N[C@@H](CO)C(N)=O)NC(=O)[C@H](C(C)C)NC(=O)[C@H](CO)NC(=O)[C@H](Cc2c[nH]c3ccccc23)NC(=O)[C@H](CCC(=O)N[C@@H](CCN)C(=O)N[C@H](C(=O)N[C@@H](CN)C(=O)N[C@H]2CCNC(=O)[C@H]([C@@H](C)O)NC(=O)[C@H](CCN)NC(=O)[C@H](CCN)NC(=O)[C@H](CC(C)C)NC(=O)[C@@H](CC(C)C)NC(=O)[C@H](CCN)NC2=O)[C@@H](C)O)NC(=O)[C@@H](CCN)NC1=O [Ex. 363] (I: Ac-VCY[Dab][Abu][dDab]EWSVCS-NH2 / II: [Dab]T[Dap][Dab][Dab][dL]L[Dab][Dab]T; disulfide I:2-I:11; amide I:7-II:N; lactam II:4-II:C) | 0.0625 | 0.0625 (≈ 0.0261 µM) | 0.125 (≈ 0.0522 µM) | 0.125 | 0.0625 | 0.0625 | 0.125 (≈ 0.0522 µM) | 0.0625 (≈ 0.0261 µM) | 0/3 died at 2 × 40 mg/kg | 2 |
| CC(=O)N[C@H](C(=O)N[C@H]1CSSC[C@@H](C(=O)N[C@@H](CO)C(N)=O)NC(=O)[C@H](C(C)C)NC(=O)[C@H](CO)NC(=O)[C@H](Cc2c[nH]c3ccccc23)NC(=O)[C@H](CCC(=O)N[C@@H](CCN)C(=O)N[C@H](C(=O)N[C@@H](CN)C(=O)N[C@H]2CCNC(=O)[C@H]([C@@H](C)O)NC(=O)[C@H](CCN)NC(=O)[C@H](CCN)NC(=O)[C@H](CC(C)C)NC(=O)[C@@H](CC(C)C)NC(=O)[C@H](CCN)NC2=O)[C@@H](C)O)NC(=O)[C@@H](CCN)NC(=O)[C@H]([C@@H](C)O)NC(=O)[C@H](CCN)NC(=O)[C@H](Cc2ccc(O)cc2)NC1=O)C(C)C [Ex. 364] (I: Ac-VCY[Dab]T[dDab]EWSVCS-NH2 / II: [Dab]T[Dap][Dab][Dab][dL]L[Dab][Dab]T; disulfide I:2-I:11; amide I:7-II:N; lactam II:4-II:C) | 0.0625 | 0.125 (≈ 0.0518 µM) | 0.25 (≈ 0.104 µM) | 0.125 | 0.0625 | 0.0625 | 0.125 (≈ 0.0518 µM) | 0.125 (≈ 0.0518 µM) | 0/3 died at 2 × 40 mg/kg | <1 |
| CC(=O)N[C@H](C(=O)N[C@H]1CSSC[C@@H](C(=O)N[C@@H](CO)C(N)=O)NC(=O)[C@H](C(C)C)NC(=O)[C@H](CO)NC(=O)[C@H](Cc2c[nH]c3ccccc23)NC(=O)[C@H](CCC(=O)N[C@@H](CCN)C(=O)N[C@H](C(=O)N[C@@H](CN)C(=O)N[C@H]2CCNC(=O)[C@H]([C@@H](C)O)NC(=O)[C@H](CCN)NC(=O)[C@H](CCN)NC(=O)[C@H](CC(C)C)NC(=O)[C@@H](CC(C)C)NC(=O)[C@H](CCN)NC2=O)[C@@H](C)O)NC(=O)[C@@H](CCN)NC(=O)[C@H](Cc2c[nH]cn2)NC(=O)[C@H](CCN)NC(=O)[C@H](Cc2ccc(O)cc2)NC1=O)C(C)C [Ex. 365] (I: Ac-VCY[Dab]H[dDab]EWSVCS-NH2 / II: [Dab]T[Dap][Dab][Dab][dL]L[Dab][Dab]T; disulfide I:2-I:11; amide I:7-II:N; lactam II:4-II:C) | 0.0625 | 0.0625 (≈ 0.0255 µM) | 0.125 (≈ 0.051 µM) | 0.125 | 0.0625 | 0.03125 | 0.125 (≈ 0.051 µM) | 0.0625 (≈ 0.0255 µM) | 0/3 died at 2 × 40 mg/kg | <1 |
| CC(=O)N[C@H](C(=O)N[C@H]1CSSC[C@@H](C(=O)N[C@H](C)C(=O)N[C@@H](CO)C(N)=O)NC(=O)[C@H](C(C)C)NC(=O)[C@H](CO)NC(=O)[C@H](Cc2c[nH]c3ccccc23)NC(=O)[C@H](CO)NC(=O)[C@@H](CCN)NC(=O)[C@H](CCC(=O)N[C@@H](CCN)C(=O)N[C@H](C(=O)N[C@@H](CN)C(=O)N[C@H]2CCNC(=O)[C@H]([C@@H](C)O)NC(=O)[C@H](CCN)NC(=O)[C@H](CCN)NC(=O)[C@H](CC(C)C)NC(=O)[C@@H](CC(C)C)NC(=O)[C@H](CCN)NC2=O)[C@@H](C)O)NC(=O)[C@H](CCN)NC(=O)[C@H](Cc2ccc(O)cc2)NC1=O)C(C)C [Ex. 370] (I: Ac-VCY[Dab]E[dDab]SWSVC[dA]S-NH2 / II: [Dab]T[Dap][Dab][Dab][dL]L[Dab][Dab]T; disulfide I:2-I:11; amide I:5-II:N; lactam II:4-II:C) | 0.0625 | 0.5 (≈ 0.202 µM) | 0.5 (≈ 0.202 µM) | 0.125 | 0.0625 | 0.0625 | 1 (≈ 0.405 µM) | 0.125 (≈ 0.0506 µM) | 0/3 died at 2 × 40 mg/kg | 2 |
| CC(=O)N[C@H](C(=O)N[C@H]1CSSC[C@@H](C(=O)N[C@@H](CO)C(=O)N[C@H](CO)C(N)=O)NC(=O)[C@H](C(C)C)NC(=O)[C@H](CO)NC(=O)[C@H](Cc2c[nH]c3ccccc23)NC(=O)[C@H](CO)NC(=O)[C@@H](CCN)NC(=O)[C@H](CCC(=O)N[C@@H](CCN)C(=O)N[C@H](C(=O)N[C@@H](CN)C(=O)N[C@H]2CCNC(=O)[C@H]([C@@H](C)O)NC(=O)[C@H](CCN)NC(=O)[C@H](CCN)NC(=O)[C@H](CC(C)C)NC(=O)[C@@H](CC(C)C)NC(=O)[C@H](CCN)NC2=O)[C@@H](C)O)NC(=O)[C@H](CCN)NC(=O)[C@H](Cc2ccc(O)cc2)NC1=O)C(C)C [Ex. 375] (I: Ac-VCY[Dab]E[dDab]SWSVCS[dS]-NH2 / II: [Dab]T[Dap][Dab][Dab][dL]L[Dab][Dab]T; disulfide I:2-I:11; amide I:5-II:N; lactam II:4-II:C) | 0.0625 | 0.0625 (≈ 0.0251 µM) | 0.125 (≈ 0.0503 µM) | 0.125 | 0.03125 | 0.03125 | 0.125 (≈ 0.0503 µM) | 0.25 (≈ 0.101 µM) | 0/3 died at 2 × 40 mg/kg | <1 |
